Data published in patent US20250230193A1, “CYCLIC COMPOUND HAVING SELECTIVE KRAS INHIBITORY EFFECT ON HRAS AND NRAS” (CHUGAI SEIYAKU KABUSHIKI KAISHA, priority 2022, published 2025).

Legend:
[1] = biological target: GDP-bound NRAS wild-type protein (Homo sapiens, UniProt P01111); test: Binding to NRAS by surface plasmon resonance (SPR), Single Cycle Kinetics; details: KD ratio, GDP-bound NRAS wild-type vs GDP-bound KRAS wild-type, SPR
[2] = biological target: GDP-bound HRAS wild-type protein (Homo sapiens, UniProt P01112); test: Binding to HRAS by surface plasmon resonance (SPR), Single Cycle Kinetics; details: KD ratio, GDP-bound HRAS wild-type vs GDP-bound KRAS wild-type, SPR
GDP-bound HRAS wild-type protein, sequence (P01112 whole entry): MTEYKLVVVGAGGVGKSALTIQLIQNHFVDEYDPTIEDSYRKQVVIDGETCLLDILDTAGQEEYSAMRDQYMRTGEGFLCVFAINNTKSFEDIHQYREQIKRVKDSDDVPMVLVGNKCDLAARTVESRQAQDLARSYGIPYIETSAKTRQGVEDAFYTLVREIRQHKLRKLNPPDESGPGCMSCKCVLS

GDP-bound NRAS wild-type protein, sequence (P01111 whole entry): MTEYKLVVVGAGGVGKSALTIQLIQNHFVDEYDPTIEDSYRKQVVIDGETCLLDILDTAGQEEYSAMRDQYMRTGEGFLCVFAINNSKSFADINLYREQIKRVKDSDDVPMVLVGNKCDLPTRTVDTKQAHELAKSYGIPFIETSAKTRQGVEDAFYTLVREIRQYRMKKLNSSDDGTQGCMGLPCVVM

| SMILES | NRAS/KRAS (ratio of KD value for NRAS to KD value for KRAS) [1] | HRAS/KRAS (ratio of KD value for HRAS to KD value for KRAS) [2] |
| --- | --- | --- |
| CCO[C@@H]1C[C@H]2C(=O)NC3(CC(F)(F)C3)C(=O)N(C)[C@@H](C3CCCC3)C(=O)N3CCC[C@@H]3CC(=O)N(C)[C@@H](CC)C(=O)N[C@@H]([C@@H](C)CC)C(=O)N(C)CC(=O)N(C)[C@H]3C/C=C\CCN(C3=O)[C@@H](Cc3ccc(C(F)(F)F)cc3)C(=O)N(C)CC(=O)N[C@@H](CCc3cc(F)c(C(F)(F)F)c(F)c3)C(=O)N2C1 [PP1609] | A (a compound having 10 or more and less than 20 is denoted as A) | A (a compound having 10 or more and less than 20 is denoted as A) |
| CCO[C@@H]1C[C@H]2C(=O)NC3(CC(C)(C)C3)C(=O)N(C)[C@@H](C(CC)CC)C(=O)N3CCC[C@@H]3CC(=O)N(C)[C@@H](CC3CC3)C(=O)N[C@@H]([C@@H](C)CC)C(=O)N(C)CC(=O)N(C)[C@H]3C/C=C\CCN(C3=O)[C@@H](Cc3ccc(C(F)(F)F)cc3)C(=O)N(C)CC(=O)N[C@@H](CCc3cc(F)c(C(F)(F)F)c(F)c3)C(=O)N2C1 [PP1610] | A (a compound having 10 or more and less than 20 is denoted as A) | A (a compound having 10 or more and less than 20 is denoted as A) |
| CCO[C@@H]1C[C@H]2C(=O)NC3(CC(C)(C)C3)C(=O)N(C)[C@@H](C3CCCC3)C(=O)N3CCC[C@@H]3CC(=O)N(C)[C@@H](CC3CC3)C(=O)N[C@@H]([C@@H](C)CC)C(=O)N(C)CC(=O)N(C)[C@H]3C/C=C\CCN(C3=O)[C@@H](Cc3ccc(C(F)(F)F)cc3)C(=O)N(C)CC(=O)N[C@@H](CCc3cc(F)c(C(F)(F)F)c(F)c3)C(=O)N2C1 [PP1611] | B (a compound having 3 or more and less than 10 is denoted as B) | B (a compound having 3 or more and less than 10 is denoted as B) |
| CCO[C@@H]1C[C@H]2C(=O)NC3(CCC3)C(=O)N(C)[C@@H](C(CC)CC)C(=O)N3CCC[C@@H]3CC(=O)N(C)[C@@H](CC3CC3)C(=O)N[C@@H]([C@@H](C)CC)C(=O)N(C)CC(=O)N(C)[C@H]3C/C=C\CCN(C3=O)[C@@H](Cc3ccc(C(F)(F)F)cc3)C(=O)N(C)CC(=O)N[C@@H](CCc3cc(F)c(C(F)(F)F)c(F)c3)C(=O)N2C1 [PP1612] | B (a compound having 3 or more and less than 10 is denoted as B) | B (a compound having 3 or more and less than 10 is denoted as B) |
| CCO[C@@H]1C[C@H]2C(=O)NC3(CCC3)C(=O)N(C)[C@@H](C3CCCC3)C(=O)N3CCC[C@@H]3CC(=O)N(C)[C@@H](CC3CC3)C(=O)N[C@@H]([C@@H](C)CC)C(=O)N(C)CC(=O)N(C)[C@H]3C/C=C\CCN(C3=O)[C@@H](Cc3ccc(C(F)(F)F)cc3)C(=O)N(C)CC(=O)N[C@@H](CCc3cc(F)c(C(F)(F)F)c(F)c3)C(=O)N2C1 [PP1613] | B (a compound having 3 or more and less than 10 is denoted as B) | B (a compound having 3 or more and less than 10 is denoted as B) |
| CCO[C@@H]1C[C@H]2C(=O)NC3(CC(F)(F)C3)C(=O)N(C)[C@@H](C(CC)CC)C(=O)N3CCC[C@@H]3CC(=O)N(C)[C@@H](CC3CC3)C(=O)N[C@@H]([C@@H](C)CC)C(=O)N(C)CC(=O)N(C)[C@H]3C/C=C\CCN(C3=O)[C@@H](Cc3ccc(C(F)(F)F)cc3)C(=O)N(C)CC(=O)N[C@@H](CCc3cc(F)c(C(F)(F)F)c(F)c3)C(=O)N2C1 [PP1614] | A (a compound having 10 or more and less than 20 is denoted as A) | A (a compound having 10 or more and less than 20 is denoted as A) |
| CCO[C@@H]1C[C@H]2C(=O)NC3(CC(F)(F)C3)C(=O)N(C)[C@@H](C3CCCC3)C(=O)N3CCC[C@@H]3CC(=O)N(C)[C@@H](CC3CC3)C(=O)N[C@@H]([C@@H](C)CC)C(=O)N(C)CC(=O)N(C)[C@H]3C/C=C\CCN(C3=O)[C@@H](Cc3ccc(C(F)(F)F)cc3)C(=O)N(C)CC(=O)N[C@@H](CCc3cc(F)c(C(F)(F)F)c(F)c3)C(=O)N2C1 [PP1615] | B (a compound having 3 or more and less than 10 is denoted as B) | B (a compound having 3 or more and less than 10 is denoted as B) |
| CCO[C@@H]1C[C@H]2C(=O)NC3(CCC3)C(=O)N(C)[C@@H](C3CCCC3)C(=O)N3CCC[C@@H]3CC(=O)N(C)[C@@H](CC3CC3)C(=O)N[C@@H]([C@@H](C)CC)C(=O)N(C)CC(=O)N(C)[C@H]3C/C=C\CCN(C3=O)[C@@H](Cc3ccc(C(F)(F)F)cc3)C(=O)N(C)CC(=O)N[C@@H](CCc3ccc(C(F)(F)F)c(OC)c3)C(=O)N2C1 [PP1616] | B (a compound having 3 or more and less than 10 is denoted as B) | B (a compound having 3 or more and less than 10 is denoted as B) |
| CCO[C@@H]1C[C@H]2C(=O)NC3(CC(C)(C)C3)C(=O)N(C)[C@@H](C3CCCC3)C(=O)N3CCC[C@@H]3CC(=O)N(C)[C@@H](CC)C(=O)N[C@@H]([C@@H](C)CC)C(=O)N(C)CC(=O)N(C)[C@H]3C/C=C\CCN(C3=O)[C@@H](CC3CCCCC3)C(=O)N(C)CC(=O)N[C@@H](CCc3cc(F)c(C(F)(F)F)c(F)c3)C(=O)N2C1 [PP1620] | B (a compound having 3 or more and less than 10 is denoted as B) | B (a compound having 3 or more and less than 10 is denoted as B) |
| CCO[C@@H]1C[C@H]2C(=O)NC3(CC(C)(C)C3)C(=O)N(C)[C@@H](C3CCCC3)C(=O)N(C)[C@H](CC)CC(=O)N(C)[C@@H](CC)C(=O)N[C@@H]([C@@H](C)CC)C(=O)N(C)CC(=O)N(C)[C@H]3C/C=C\CCN(C3=O)[C@@H](Cc3ccc(C(F)(F)F)cc3)C(=O)N(C)CC(=O)N[C@@H](CCc3cc(F)c(C(F)(F)F)c(F)c3)C(=O)N2C1 [PP1623] | A (a compound having 10 or more and less than 20 is denoted as A) | A (a compound having 10 or more and less than 20 is denoted as A) |
| CCO[C@@H]1C[C@H]2C(=O)NC3(CCC3)C(=O)N(C)[C@@H](C(CC)CC)C(=O)N(C)[C@H](CC)CC(=O)N(C)[C@@H](CC)C(=O)N[C@@H]([C@@H](C)CC)C(=O)N(C)CC(=O)N(C)[C@H]3C/C=C\CCN(C3=O)[C@@H](Cc3ccc(C(F)(F)F)cc3)C(=O)N(C)CC(=O)N[C@@H](CCc3cc(F)c(C(F)(F)F)c(F)c3)C(=O)N2C1 [PP1624] | A (a compound having 10 or more and less than 20 is denoted as A) | A (a compound having 10 or more and less than 20 is denoted as A) |
| CCO[C@@H]1C[C@H]2C(=O)NC3(CCC3)C(=O)N(C)[C@@H](C3CCCC3)C(=O)N(C)[C@H](CC)CC(=O)N(C)[C@@H](CC)C(=O)N[C@@H]([C@@H](C)CC)C(=O)N(C)CC(=O)N(C)[C@H]3C/C=C\CCN(C3=O)[C@@H](Cc3ccc(C(F)(F)F)cc3)C(=O)N(C)CC(=O)N[C@@H](CCc3cc(F)c(C(F)(F)F)c(F)c3)C(=O)N2C1 [PP1625] | B (a compound having 3 or more and less than 10 is denoted as B) | B (a compound having 3 or more and less than 10 is denoted as B) |
| CCO[C@@H]1C[C@H]2C(=O)NC3(CC(F)(F)C3)C(=O)N(C)[C@@H](C(CC)CC)C(=O)N(C)[C@H](CC)CC(=O)N(C)[C@@H](CC)C(=O)N[C@@H]([C@@H](C)CC)C(=O)N(C)CC(=O)N(C)[C@H]3C/C=C\CCN(C3=O)[C@@H](Cc3ccc(C(F)(F)F)cc3)C(=O)N(C)CC(=O)N[C@@H](CCc3cc(F)c(C(F)(F)F)c(F)c3)C(=O)N2C1 [PP1626] | A (a compound having 10 or more and less than 20 is denoted as A) | A (a compound having 10 or more and less than 20 is denoted as A) |
| CCO[C@@H]1C[C@H]2C(=O)NC3(CC(F)(F)C3)C(=O)N(C)[C@@H](C3CCCC3)C(=O)N(C)[C@H](CC)CC(=O)N(C)[C@@H](CC)C(=O)N[C@@H]([C@@H](C)CC)C(=O)N(C)CC(=O)N(C)[C@H]3C/C=C\CCN(C3=O)[C@@H](Cc3ccc(C(F)(F)F)cc3)C(=O)N(C)CC(=O)N[C@@H](CCc3cc(F)c(C(F)(F)F)c(F)c3)C(=O)N2C1 [PP1627] | A (a compound having 10 or more and less than 20 is denoted as A) | A (a compound having 10 or more and less than 20 is denoted as A) |
| CCO[C@@H]1C[C@H]2C(=O)NC3(CC(C)(C)C3)C(=O)N(C)[C@@H](C(CC)CC)C(=O)N(C)[C@H](CC)CC(=O)N(C)[C@@H](CC3CC3)C(=O)N[C@@H]([C@@H](C)CC)C(=O)N(C)CC(=O)N(C)[C@H]3C/C=C\CCN(C3=O)[C@@H](Cc3ccc(C(F)(F)F)cc3)C(=O)N(C)CC(=O)N[C@@H](CCc3cc(F)c(C(F)(F)F)c(F)c3)C(=O)N2C1 [PP1628] | A (a compound having 10 or more and less than 20 is denoted as A) | A (a compound having 10 or more and less than 20 is denoted as A) |
| CCO[C@@H]1C[C@H]2C(=O)NC3(CC(C)(C)C3)C(=O)N(C)[C@@H](C3CCCC3)C(=O)N(C)[C@H](CC)CC(=O)N(C)[C@@H](CC3CC3)C(=O)N[C@@H]([C@@H](C)CC)C(=O)N(C)CC(=O)N(C)[C@H]3C/C=C\CCN(C3=O)[C@@H](Cc3ccc(C(F)(F)F)cc3)C(=O)N(C)CC(=O)N[C@@H](CCc3cc(F)c(C(F)(F)F)c(F)c3)C(=O)N2C1 [PP1629] | B (a compound having 3 or more and less than 10 is denoted as B) | B (a compound having 3 or more and less than 10 is denoted as B) |
| CCO[C@@H]1C[C@H]2C(=O)NC3(CCC3)C(=O)N(C)[C@@H](C(CC)CC)C(=O)N(C)[C@H](CC)CC(=O)N(C)[C@@H](CC3CC3)C(=O)N[C@@H]([C@@H](C)CC)C(=O)N(C)CC(=O)N(C)[C@H]3C/C=C\CCN(C3=O)[C@@H](Cc3ccc(C(F)(F)F)cc3)C(=O)N(C)CC(=O)N[C@@H](CCc3cc(F)c(C(F)(F)F)c(F)c3)C(=O)N2C1 [PP1630] | A (a compound having 10 or more and less than 20 is denoted as A) | A (a compound having 10 or more and less than 20 is denoted as A) |
